Reference: patent publication US10746637B2, “Aldehyde scavenging agent for retrieving elements from fixed tissue” (University of Houston System, priority 2013, dated 2020)
“Also recorded” adds a separate entry of the source.

Legend:
Collagen IV [1] = assay: Antigen retrieval in adult human brain vasculature, Collagen IV staining; details: paraformaldehyde fixed paraffin embedded adult human brain tissue (FIG. 7)
Procedure: Paraformaldehyde fixed paraffin embedded tissue from adult human brain is treated with 2,3-dimethylmaleic acid as an antigen retrieval method as described.

ACTH (18-39) peptide = assay: Mass spectrometry of formalin treated ACTH (18-39) peptide after heating with formaldehyde scavenging agents; details: 5% compound, 98° C. for 45 minutes as printed with the result (method says 90° C.)
Procedure: ACTH (18-39) peptide is treated with formalin at room temperature for 48 hours (FIG. 12A). […] The composition of the formalin treated ACTH after each treatment is analyzed using mass spectrometry. The results shown in FIGS. 12A-12D are used to investigate the ability of the agents to reverse formaldehyde adducts. […] Only a small amount of ACTH with 3 methylene units is detected.

Angiotensin I = assay: Mass spectrometry of formalin treated Angiotensin I after heating with aldehyde scavenging compounds; details: 5% compound, 95° C., 45 minutes
Procedure: Angiotensin I is treated with formalin at room temperature for 48 hours. […] Mass-spectrometry is used to analyze the compositions of the Angiotensin I before and after treatment by each compound. Samples of Angiotensin I before (FIG. 11A) and after (FIG. 11B) formalin treatments are used as the controls for the experiment. Peaks at m/z 1296 represent unmodified Angiotensin I. Peaks at m/z 1308 represent Angiotensin I with 1 methylene unit. Peaks at m/z 1320 represent Angiotensin I with 2 methylene units. Peaks at m/z 1338 represent Angiotensin I with 1 methylene unit and 1 hydroxymethylene group. Peaks at m/z 1350 represent Angiotensin I with 2 methylene units and 1 hydroxymethylene group.

[2] = Autofluorescence of heated paraformaldehyde fixed paraffin embedded brain tissue; details: 5% ascorbic acid; 70° C., 30 minutes; 488 nm excitation; versus tissue heated only in water
Text: Images are captured at same exposure and time.

collagen IV [3] = assay: Fluorescent enhancement after antigen retrieval with addition of Triton, Collagen IV detection of blood vessels; details: 0.5% Triton X-100 added to 5.0% ascorbic acid solution; 70° C., 30 minutes; 488 nm excitation; versus without Triton X-100
Text: Images are captured using 488 nm excitation.

blood vessels = assay: Antigen retrieval in paraformaldehyde fixed vascular tissue, visualization of blood vessels; details: paraformaldehyde fixed tissue heated in solution of compound (FIGS. 4A-4E)
Text: Paraformaldehyde fixed tissue samples are heated in solutions of compounds prepared as described in Example 1 and the blood vessels in the tissue are visualized.

Collagen IV [4] = assay: Immunohistochemical staining of Collagen IV on formalin fixed paraffin embedded mouse brain sections after antigen retrieval with formaldehyde scavengers and enhancer; set-up: key: − being non-reactive; Immunoreactivity was scored on a scale of − to +++; Immunoreactivity was scored on a scale of − to +++; +++ being highly reactive; details: Table 8; 0.05% maleic acid alone or with aniline, concentrations in label; 45 minutes at 95° C.
Procedure: 12-month-old C57Bl6J mice were housed under controlled environment conditions on a condition al 12 hour light dark cycle. Following sacrifice, brains were post-fixed in 4% paraformaldehyde for 72 hours at […] and then transferred to 70% ethanol solution where they were stored at 4° C. Tissue was paraffin-processed using convention dehydration and embedding, and then sectioned at 5 μm intervals.
Tissues were deparaffinized and rehydrated. Slides were placed in a plastic Coplin jar containing either distilled water or a combination of formaldehyde scavengers in combination with an enhancer. Jars were covered with a loose fitting screw cap and heated in a pressure cooker for 45 minutes at 95° C. After heating, the Coplin jars were removed and allowed to cool and rinsed in TBST for five minutes.
Immunohistochemical staining was performed using a three-step immunostaining technique using the ABC method. Briefly, all incubations were performed as follows: 1) primary antibodies were incubated overnight at 4° C., 2) secondary antibodies were incubated for 10 minutes at room temperature, 3) streptavidin-conjugated enzyme was incubated for 10 minutes at room temperature, 4) peroxidase substrate was incubated for 1 minute.

GAPDH = assay: Dot blot of GAPDH in formaldehyde treated tissues; details: maleic acid 1.6% to 12.8%, 95° C. for 30 minutes (FIG. 6B)

Q: Which “detection of blood vessels using Collagen IV” value (Collagen IV [1]) does the source give for `C/C(C(=O)O)=C(\C)C(=O)O` [2,3-dimethylmaleic acid] here?
A: Blood vessels were detected

Q: What does the source list for `O=C1O[C@H]([C@@H](O)CO)C(O)=C1O` [ascorbic acid]?
A: conversion of modified ACTH (1, 2 or 3 methylene groups) into unmodified ACTH (m/z 2465) (ACTH (18-39) peptide): convert almost all the modified ACTH; retrieval of formalin adducts of Angiotensin I (Angiotensin I): significant retrieval of formalin adducts; tissue autofluorescence [2]: dramatically reduces visible autofluorescence; also recorded: reduction of autofluorescence

Q: For Triton X-100, which “staining evenness and fluorescence intensity after antigen retrieval” value (collagen IV [3]) is on record?
A: significant improvement in staining evenness and intensity; also recorded: enhancement of fluorescence

Q: For `O=C(O)/C=C\C(=O)O` [0.05% Maleic acid, Maleic acid], which “antigen retrieval with visualization of the blood vessels” value (blood vessels) is on record?
A: successful antigen retrieval

Q: And the “Result (immunoreactivity, Collagen IV staining)” value (Collagen IV [4])?
A: +

Q: What about the “conversion of modified ACTH (1, 2 or 3 methylene groups) into unmodified ACTH (m/z 2465)” value (ACTH (18-39) peptide) of the same compound?
A: convert almost all the modified ACTH

Q: What about the “amount of Angiotensin I with 2 methylene units (m/z 1320)” value (Angiotensin I) of the same compound?
A: significantly reduce

Q: What about the “content of unmodified Angiotensin I (m/z 1296)” value (Angiotensin I) of the same compound?
A: higher content of unmodified Angiotensin I

Q: And the “detection of GAPDH (dot blot)” value (GAPDH)?
A: parallel increase in the detection of GAPDH
